From PubChem BioAssay AID248 (DTP/NCI, 2004) come the findings set out here.

The experiment concerns L1210 leukemia ip in BDF1 mice, survival T/C. Put plainly: NCI In Vivo Anticancer Drug Screen. Data for tumor model L1210 Leukemia (intraperitoneal) in B6D2F1 (BDF1) mice. Particulars: endpoint: mean survival time, higher = longer survival. A digest of the protocol:
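Transplanted-tumor mice were given test agent; controls received vehicle only. Survival readings from the two groups were divided (treated over control).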

[1] abbreviates: dose: 25.0 mg/kg/injection, schedule: Q01DX009 (ip), vehicle: saline with Tween-80.
Where [2] appears, read: dose: 50.0 mg/kg/injection, schedule: Q01DX009 (ip), vehicle: saline with Tween-80.
Setting [3] is: dose: 100.0 mg/kg/injection, schedule: Q01DX009 (ip), vehicle: saline with Tween-80.
Setting [4] is: dose: 100.0 mg/kg/injection, schedule: Q01DX009 (ip), vehicle: saline.
[5] abbreviates: dose: 200.0 mg/kg/injection, schedule: Q01DX009 (ip), vehicle: saline.
The mark [6] stands for this setting: dose: 100.0 mg/kg/injection, schedule: Q01DX001 (ip), vehicle: saline.
Where [7] appears, read: dose: 100.0 mg/kg/injection, schedule: Q01DX009 (ip), vehicle: Klucel (hydroxypropylcellulose) (HPC).
[8] abbreviates: dose: 100.0 mg/kg/injection, schedule: Q04DX003 (ip), vehicle: Klucel (hydroxypropylcellulose) (HPC).
Setting [9] is: dose: 200.0 mg/kg/injection, schedule: Q01DX009 (ip), vehicle: Klucel (hydroxypropylcellulose) (HPC).
Where [10] appears, read: dose: 200.0 mg/kg/injection, schedule: Q04DX003 (ip), vehicle: Klucel (hydroxypropylcellulose) (HPC).
[11] abbreviates: dose: 400.0 mg/kg/injection, schedule: Q01DX009 (ip), vehicle: Klucel (hydroxypropylcellulose) (HPC).

Where “and” joins values, the source holds several entries; their conditions need not be identical. Equal entries are not always repeated. Inconclusive results and toxic doses are left out.

For `C/C=C/C(=O)Nc1cc(C(F)(F)F)ccc1Cl`, the T/C is 93 % of control and 97 % of control under setting [1]; 97 % of control and 89 % of control under setting [2]; 98 % of control (dose: 50.0 mg/kg/injection, schedule: Q04DX003 (ip), vehicle: saline with Tween-80); 98 % of control (dose: 100.0 mg/kg/injection, schedule: Q01DX001 (ip), vehicle: saline with Tween-80); 96 % of control and 90 % of control under setting [3]; 94 % of control and 102 % of control under setting [4]. In addition, the T/C by setting is: (dose: 100.0 mg/kg/injection, schedule: Q04DX002 (ip), vehicle: saline) 102 % of control and 109 % of control; (dose: 100.0 mg/kg/injection, schedule: Q04DX003 (ip), vehicle: saline with Tween-80) 98 % of control and 89 % of control; (dose: 200.0 mg/kg/injection, schedule: Q01DX001 (ip), vehicle: saline with Tween-80) 88 % of control; under setting [5], 88 % of control; (dose: 200.0 mg/kg/injection, schedule: Q04DX002 (ip), vehicle: saline) 94 % of control and 103 % of control; (dose: 200.0 mg/kg/injection, schedule: Q04DX003 (ip), vehicle: saline with Tween-80) 109 % of control. Further, the T/C was 95 % of control (dose: 400.0 mg/kg/injection, schedule: Q04DX002 (ip), vehicle: saline) and 95 % of control (dose: 400.0 mg/kg/injection, schedule: Q04DX003 (ip), vehicle: saline with Tween-80).

As to `CCCCCCOC(=O)Nc1ccc(S(=O)(=O)N(CCC)CCC)cc1`, the T/C reads like this: under setting [6], 97 % of control; (dose: 200.0 mg/kg/injection, schedule: Q01DX001 (ip), vehicle: saline) 95 % of control; (dose: 400.0 mg/kg/injection, schedule: Q01DX001 (ip), vehicle: saline) 97 % of control.

As for `O=C(Cl)c1ccccc1S(=O)(=O)N(CCOc1ccccc1)c1ccccc1`, the T/C was 97 % of control under setting [7]; 96 % of control under setting [8]; 98 % of control under setting [9]; 91 % of control under setting [10]; 97 % of control under setting [11]; 86 % of control (dose: 400.0 mg/kg/injection, schedule: Q04DX003 (ip), vehicle: Klucel (hydroxypropylcellulose) (HPC)).

`CCCCC(CC)CNC(C)=O` (centres undefined): the T/C runs as follows: under setting [8], 99 % of control; under setting [10], 95 % of control.

For the molecule `COc1cc2ccc(CC(=O)NCc3ccccc3)cc2cc1OC`, the T/C is 94 % of control under setting [4]; 91 % of control (dose: 100.0 mg/kg/injection, schedule: Q04DX003 (ip), vehicle: saline); 89 % of control under setting [5]; 86 % of control (dose: 200.0 mg/kg/injection, schedule: Q04DX003 (ip), vehicle: saline); 101 % of control (dose: 400.0 mg/kg/injection, schedule: Q01DX009 (ip), vehicle: saline); 101 % of control (dose: 400.0 mg/kg/injection, schedule: Q04DX003 (ip), vehicle: saline).

In the case of `CCCc1ccc(C(=O)O)cc1`, the T/C under setting [7] is 95 % of control, the T/C under setting [9] is 91 % of control and the T/C under setting [11] was 98 % of control.

With `CC(=O)N(N=Nc1ccc(Cl)cc1)c1ccc(Cl)cc1`, the T/C under setting [2] was 98 % of control; the T/C under setting [3] is 98 % of control; the T/C (dose: 200.0 mg/kg/injection, schedule: Q01DX009 (ip), vehicle: saline with Tween-80) was 98 % of control.

`O=C(Cc1ccccc1)Nc1ccc([N+](=O)[O-])cc1Cl`: the T/C reads like this: under setting [1], 103 % of control; under setting [2], 103 % of control; under setting [3], 94 % of control and 100 % of control; (dose: 100.0 mg/kg/injection, schedule: Q04DX002 (ip), vehicle: saline with Tween-80) 104 % of control; (dose: 150.0 mg/kg/injection, schedule: Q01DX009 (ip), vehicle: saline with Tween-80) 92 % of control; (dose: 200.0 mg/kg/injection, schedule: Q04DX002 (ip), vehicle: saline with Tween-80) 101 % of control. Also, the T/C is 97 % of control (dose: 225.0 mg/kg/injection, schedule: Q01DX009 (ip), vehicle: saline with Tween-80); 103 % of control (dose: 335.0 mg/kg/injection, schedule: Q01DX009 (ip), vehicle: saline with Tween-80); 96 % of control (dose: 400.0 mg/kg/injection, schedule: Q04DX002 (ip), vehicle: saline with Tween-80).

For `CC(=O)NCc1ccc(N)cc1`, the T/C (dose: 12.5 mg/kg/injection, schedule: Q01DX009 (ip), vehicle: water) is 114 % of control; the T/C (dose: 25.0 mg/kg/injection, schedule: Q01DX009 (ip), vehicle: water) is 112 % of control; the T/C (dose: 50.0 mg/kg/injection, schedule: Q01DX009 (ip), vehicle: water) was 114 % of control; the T/C (dose: 100.0 mg/kg/injection, schedule: Q01DX009 (ip), vehicle: water) is 120 % of control; the T/C (dose: 200.0 mg/kg/injection, schedule: Q01DX009 (ip), vehicle: water) was 116 % of control.

For the molecule `O=NN(CCCl)C(=O)NC1(C(=O)O)CCCC1`, the T/C was 109 % of control (dose: 15.0 mg/kg/injection, schedule: Q01DX001 (ip), vehicle: saline with Tween-80); 113 % of control (dose: 23.0 mg/kg/injection, schedule: Q01DX001 (ip), vehicle: saline with Tween-80); 121 % of control (dose: 50.0 mg/kg/injection, schedule: Q01DX001 (ip), vehicle: Klucel (hydroxypropylcellulose) (HPC)); 172 % of control (dose: 75.0 mg/kg/injection, schedule: Q01DX001 (ip), vehicle: Klucel (hydroxypropylcellulose) (HPC)); 162 % of control (dose: 75.0 mg/kg/injection, schedule: Q01DX001 (ip), vehicle: carboxymethylcellulose (CMC)); 152 % of control (dose: 80.0 mg/kg/injection, schedule: Q01DX001 (ip), vehicle: saline with Tween-80). In addition, the T/C is 243 % of control (dose: 112.0 mg/kg/injection, schedule: Q01DX001 (ip), vehicle: Klucel (hydroxypropylcellulose) (HPC)); 168 % of control (dose: 112.0 mg/kg/injection, schedule: Q01DX001 (ip), vehicle: carboxymethylcellulose (CMC)); 252 % of control (dose: 119.0 mg/kg/injection, schedule: Q01DX001 (ip), vehicle: saline with Tween-80); 310 % of control (dose: 168.0 mg/kg/injection, schedule: Q01DX001 (ip), vehicle: Klucel (hydroxypropylcellulose) (HPC)); 272 % of control (dose: 168.0 mg/kg/injection, schedule: Q01DX001 (ip), vehicle: carboxymethylcellulose (CMC)); 274 % of control (dose: 178.0 mg/kg/injection, schedule: Q01DX001 (ip), vehicle: saline with Tween-80). Besides, the T/C reads like this: (dose: 252.0 mg/kg/injection, schedule: Q01DX001 (ip), vehicle: Klucel (hydroxypropylcellulose) (HPC)) 106 % of control; (dose: 252.0 mg/kg/injection, schedule: Q01DX001 (ip), vehicle: carboxymethylcellulose (CMC)) 89 % of control; (dose: 266.0 mg/kg/injection, schedule: Q01DX001 (ip), vehicle: saline with Tween-80) 246 % of control.

`O=C(Nc1cccc2ccccc12)Oc1ccc2ccccc2c1`: the T/C reads like this: (dose: 100.0 mg/kg/injection, schedule: Q04DX002 (ip), vehicle: Klucel (hydroxypropylcellulose) (HPC)) 96 % of control; (dose: 200.0 mg/kg/injection, schedule: Q04DX002 (ip), vehicle: Klucel (hydroxypropylcellulose) (HPC)) 93 % of control; (dose: 400.0 mg/kg/injection, schedule: Q04DX002 (ip), vehicle: Klucel (hydroxypropylcellulose) (HPC)) 116 % of control.

`CCOC(=O)C(O)(CC)c1cc[n+](Cc2cc3ccccc3nc2Cl)cc1C` (centres undefined): the T/C by setting is: (dose: 50.0 mg/kg/injection, schedule: Q01DX001 (ip), vehicle: saline) 115 % of control; under setting [6], 94 % of control.

With `Cc1ccc(S(=O)(=O)NNC(=O)c2ccccc2NCC(O)C(O)C(O)CO)cc1` (centres undefined), the T/C runs as follows: (dose: 100.0 mg/kg/injection, schedule: Q01DX001 (ip), vehicle: carboxymethylcellulose (CMC)) 98 % of control; (dose: 200.0 mg/kg/injection, schedule: Q01DX001 (ip), vehicle: carboxymethylcellulose (CMC)) 96 % of control; (dose: 400.0 mg/kg/injection, schedule: Q01DX001 (ip), vehicle: carboxymethylcellulose (CMC)) 98 % of control.
